test system: Cacki-1 cells (human clear cell renal cell carcinoma); assay: MTT cytotoxicity assay, Cacki-1; assay type: cell-based; settings: 72 h incubation
Protocol: (§1) The cell viability was analyzed at the following six concentrations of compounds: 5, 10, 20, 40, 60 and 100 µM after 72 h incubation.
(§2) Additionally, to determine the safety profile of the tested compounds, the therapeutic index (TI) (the ratio of IC50 value in HaCaT to cancer cells K562) was calculated. […] The goal of conducting the MTT assay in this research was to select benzofuran derivatives, which manage to reduce viability of cancer cells while exposing mild effects on normal healthy cells.
(§3) The cytotoxicity was evaluated by MTT reduction assay, which measures mitochondrial respiratory function. The test was performed based on the method described by Präbst et al.. Cells (1 × 10^4/well), in logarithmic phase, were seeded into 96-well plates in appropriate medium. After 24 h, cells were exposed to test compounds. […] After 72 h, the medium with the compounds was completely removed and MTT solution (0.5 mg/mL) in fresh medium without serum was added to each well. Plates with cells were incubated for 4 h at 37 °C in the dark. Then, MTT solution was removed and replenished with 0.1 mL DMSO: isopropanol (1:1) mixture to dissolve the generated formazan crystals. The optical density was measured with a […] GO (ThermoScientific) microplate reader at 570 nm. Replicates of three wells for each dosage, including vehicle control, were analyzed for each experiment. The experiments were conducted in triplicate. Control cells which were only treated with respective medium were used as the 100% viability value. […] Additionally, to determine the safety profile of the test compounds, therapeutic indexes (TI) (the ratio of IC50 values in HaCat to cancer cells (K562, PC3, SW620, Cack-1)) were calculated.

`COc1cc(OC)c2c(C)c(C(C)=O)oc2c1` [Compound 2, 1-(4,6-Dimethoxy-3-Methyl-1-Benzofuran-2-yl)Ethanone] and `COc1ccc2oc(C(C)=O)c(C)c2c1` [Compound 1, 1-(5-Methoxy-3-Methyl-1-Benzofuran-2-yl)Ethanone] cannot be ordered by IC50: > 100 µM for the first, > 100 µM for the second.

With `CCOc1ccc2c(C)c(C(C)=O)oc2c1` [Compound 4, 1-(6-Ethoxy-3-Methyl-1-Benzofuran-2-yl)Ethanone] the IC50 was > 100 µM.

test system: K562 cells (human chronic myelogenous leukemia); assay: MTT cytotoxicity assay, K562; assay type: cell-based; settings: 72 h incubation, mean ± SD
Protocol: as §1, §2, §3

In order of falling IC50:
1. CCOc1ccc2c(C)c(C(C)=O)oc2c1 [Compound 4, 1-(6-Ethoxy-3-Methyl-1-Benzofuran-2-yl)Ethanone]  60 ± 9 µM
2. COc1ccc2oc(C(C)=O)c(C)c2c1 [Compound 1, 1-(5-Methoxy-3-Methyl-1-Benzofuran-2-yl)Ethanone]  57 ± 3.5 µM
3. COc1cc(OC)c2c(C)c(C(C)=O)oc2c1 [Compound 2, 1-(4,6-Dimethoxy-3-Methyl-1-Benzofuran-2-yl)Ethanone]  36.3 ± 4.5 µM
4. COc1cccc2c1C(=O)c1c(O)c3c(c(O)c1C2=O)C[C@@](O)(C(=O)CO)C[C@@H]3O[C@H]1C[C@H](N)[C@H](O)[C@H](C)O1 [Doxorubicin, reference compound]  0.21 ± 0.1 µM
5. CC(C)C[C@H](NC(=O)[C@H](Cc1ccccc1)NC(=O)c1cnccn1)B(O)O [Bortezomib, reference compound]  0.04 ± 0.01 µM

test system: PC3 cells (human metastatic prostate cancer); assay: MTT cytotoxicity assay, PC3; assay type: cell-based; settings: PC-3, 72 h incubation, mean ± SD
Protocol: as §1, §2, §3

First: COc1cc(OC)c2c(C)c(C(C)=O)oc2c1 [Compound 2, 1-(4,6-Dimethoxy-3-Methyl-1-Benzofuran-2-yl)Ethanone]
Second: COc1ccc2oc(C(C)=O)c(C)c2c1 [Compound 1, 1-(5-Methoxy-3-Methyl-1-Benzofuran-2-yl)Ethanone]
The IC50 of the first is higher: > 100 µM for the first, 80 ± 20 µM for the second. The second is the more potent here.

With `CCOc1ccc2c(C)c(C(C)=O)oc2c1` [Compound 4, 1-(6-Ethoxy-3-Methyl-1-Benzofuran-2-yl)Ethanone] the IC50 was > 100 µM.

test system: HaCaT cells (human immortal keratinocytes); assay: MTT cytotoxicity assay, HaCaT; assay type: cell-based; settings: 72 h incubation, mean ± SD
Protocol: as §1, §2, §3

First: COc1cc(OC)c2c(C)c(C(C)=O)oc2c1 [Compound 2, 1-(4,6-Dimethoxy-3-Methyl-1-Benzofuran-2-yl)Ethanone]
Second: COc1ccc2oc(C(C)=O)c(C)c2c1 [Compound 1, 1-(5-Methoxy-3-Methyl-1-Benzofuran-2-yl)Ethanone]
The IC50 of the first is lower: 67.3 ± 29.7 µM for the first, > 100 µM for the second. The first is the more potent here.

`CCOc1ccc2c(C)c(C(C)=O)oc2c1` [Compound 4, 1-(6-Ethoxy-3-Methyl-1-Benzofuran-2-yl)Ethanone] gave an IC50 of 55.3 ± 33.4 µM.

test system: SW620 cells (human metastatic colon cancer); assay: MTT cytotoxicity assay, SW620; assay type: cell-based; settings: SW-620, 72 h incubation, mean ± SD
Protocol: as §1, §2, §3

`COc1cc(OC)c2c(C)c(C(C)=O)oc2c1` [Compound 2, 1-(4,6-Dimethoxy-3-Methyl-1-Benzofuran-2-yl)Ethanone] and `COc1ccc2oc(C(C)=O)c(C)c2c1` [Compound 1, 1-(5-Methoxy-3-Methyl-1-Benzofuran-2-yl)Ethanone] cannot be ordered by IC50: > 100 µM for the first, > 100 µM for the second.

In the case of `CCOc1ccc2c(C)c(C(C)=O)oc2c1` [Compound 4, 1-(6-Ethoxy-3-Methyl-1-Benzofuran-2-yl)Ethanone], the IC50 is reported as > 100 µM.

test system: not given; assay: not given; settings: not given

First: COc1cc(OC)c2c(C)c(C(C)=O)oc2c1 [Compound 2, 1-(4,6-Dimethoxy-3-Methyl-1-Benzofuran-2-yl)Ethanone]
Second: COc1ccc2oc(C(C)=O)c(C)c2c1 [Compound 1, 1-(5-Methoxy-3-Methyl-1-Benzofuran-2-yl)Ethanone]
The melting point of the first is higher: 115 to 118 °C for the first, 93 to 96 °C for the second.

`CCOc1ccc2c(C)c(C(C)=O)oc2c1` [Compound 4, 1-(6-Ethoxy-3-Methyl-1-Benzofuran-2-yl)Ethanone] showed a melting point of 86 to 90 °C.

Reference: PMC10888192, “New Derivatives of 1-(3-Methyl-1-Benzofuran-2-yl)Ethan-1-one: Synthesis and Preliminary Studies of Biological Activity” (International Journal of Molecular Sciences, 2024)
